In ChEMBL document CHEMBL1629479, “Old phenothiazine and dibenzothiadiazepine derivatives for tomorrow's neuroprotective therapies against neurodegenerative diseases” (Eur J Med Chem, 2010) one finds IC50, Activity and Papp data, which are given here for seven compounds.

In one data set the target is Cholinesterase (Equus caballus, UniProt P81908). Briefly: Inhibition of equine serum BuChE by Ellman's method. A general note: In Ellman's method for cholinesterases, released thiocholine reacts with DTNB.
The test system of data set [1] is SH-SY5Y. Briefly: Cytotoxicity against human SH-SY5Y cells assessed as LDH release at 100 uM after 24 hrs by UV-vis spectroscopy. In kind it is cell-based. (In general: Release of lactate dehydrogenase indicates damage to the cell membrane.)
For data set [2], the system named is SH-SY5Y. Description: Neuroprotective activity against H2O2-induced oxidative stress in human SH-SY5Y cells assessed as LDH release at 1 uM after 24 hrs by UV-vis spectroscopy. Format: functional.
Data set [3] deals with SH-SY5Y. Briefly: Neuroprotective activity against H2O2-induced oxidative stress in human SH-SY5Y cells assessed as LDH release at 3 uM after 24 hrs by UV-vis spectroscopy. Format: functional.
Data set [4] deals with SH-SY5Y. Description: Neuroprotective activity against H2O2-induced oxidative stress in human SH-SY5Y cells assessed as LDH release at 30 uM after 24 hrs by UV-vis spectroscopy. Format: functional.
Data set [5] relates to SH-SY5Y. Description: Neuroprotective activity against H2O2-induced oxidative stress in human SH-SY5Y cells assessed as LDH release at 60 uM after 24 hrs by UV-vis spectroscopy. In kind it is functional.
Data set [6] has as its system SH-SY5Y. Description: Neuroprotective activity against H2O2-induced oxidative stress in human SH-SY5Y cells assessed as LDH release at 100 uM after 24 hrs by UV-vis spectroscopy. In kind it is functional.
Data set [7] has as its system SH-SY5Y. Briefly: Neuroprotective activity against rotenone and oligomycin-induced mitochondrial oxidative stress in human SH-SY5Y cells assessed as LDH release at 3 uM after 24 hrs using DCFH-DA fluorescent dye. In kind it is functional.
Data set [8] concerns SH-SY5Y. Briefly: Neuroprotective activity against rotenone and oligomycin-induced mitochondrial oxidative stress in human SH-SY5Y cells assessed as LDH release at 10 uM after 24 hrs using DCFH-DA fluorescent dye. Format: functional.
In data set [9] the test system is SH-SY5Y. Briefly: Neuroprotective activity against rotenone and oligomycin-induced mitochondrial oxidative stress in human SH-SY5Y cells assessed as LDH release at 30 uM after 24 hrs using DCFH-DA fluorescent dye. Format: functional.
Data set [10] has as its system SH-SY5Y. Description: Neuroprotective activity against H2O2-induced oxidative stress in human SH-SY5Y cells assessed as LDH release at 30 uM after 24 hrs by UV-vis spectroscopy in presence of calcium channel blocker nimodipine. In kind it is functional.
Data set [11] is described as follows: Permeability of the compound by PAMPA at pH 7.4. The conditions noted are these: read-out: permeability. In kind it is ADME. In general terms: In PAMPA a lipid-coated filter parts donor from acceptor wells.
Another data set concerns the target T1, Acetylcholinesterase (Bos taurus, UniProt P23795).
T1 sequence (P23795 whole entry): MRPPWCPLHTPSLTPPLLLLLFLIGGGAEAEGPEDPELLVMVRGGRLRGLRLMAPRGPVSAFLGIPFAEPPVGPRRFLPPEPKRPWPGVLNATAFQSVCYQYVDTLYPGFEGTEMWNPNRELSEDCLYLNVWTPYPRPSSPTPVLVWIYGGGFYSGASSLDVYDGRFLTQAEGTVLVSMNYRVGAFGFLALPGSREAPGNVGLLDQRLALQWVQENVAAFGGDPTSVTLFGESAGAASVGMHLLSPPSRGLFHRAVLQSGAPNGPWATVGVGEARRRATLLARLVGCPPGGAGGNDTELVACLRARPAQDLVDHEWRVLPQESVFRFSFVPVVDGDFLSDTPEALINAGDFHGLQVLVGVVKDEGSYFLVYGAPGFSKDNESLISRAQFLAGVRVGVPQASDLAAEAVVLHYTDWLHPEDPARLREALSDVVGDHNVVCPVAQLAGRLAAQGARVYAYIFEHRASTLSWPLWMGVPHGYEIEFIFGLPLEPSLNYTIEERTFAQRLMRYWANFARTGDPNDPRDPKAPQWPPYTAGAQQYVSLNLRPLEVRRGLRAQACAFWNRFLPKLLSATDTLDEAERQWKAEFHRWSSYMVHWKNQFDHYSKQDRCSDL

Data set [12] concerns SH-SY5Y. Briefly: Neuroprotective activity against H2O2-induced oxidative stress in human SH-SY5Y cells assessed as LDH release at 100 uM after 24 hrs by UV-vis spectroscopy in presence of calcium channel blocker nimodipine. Format: functional.

Cholinesterase, sequence (P81908 whole entry): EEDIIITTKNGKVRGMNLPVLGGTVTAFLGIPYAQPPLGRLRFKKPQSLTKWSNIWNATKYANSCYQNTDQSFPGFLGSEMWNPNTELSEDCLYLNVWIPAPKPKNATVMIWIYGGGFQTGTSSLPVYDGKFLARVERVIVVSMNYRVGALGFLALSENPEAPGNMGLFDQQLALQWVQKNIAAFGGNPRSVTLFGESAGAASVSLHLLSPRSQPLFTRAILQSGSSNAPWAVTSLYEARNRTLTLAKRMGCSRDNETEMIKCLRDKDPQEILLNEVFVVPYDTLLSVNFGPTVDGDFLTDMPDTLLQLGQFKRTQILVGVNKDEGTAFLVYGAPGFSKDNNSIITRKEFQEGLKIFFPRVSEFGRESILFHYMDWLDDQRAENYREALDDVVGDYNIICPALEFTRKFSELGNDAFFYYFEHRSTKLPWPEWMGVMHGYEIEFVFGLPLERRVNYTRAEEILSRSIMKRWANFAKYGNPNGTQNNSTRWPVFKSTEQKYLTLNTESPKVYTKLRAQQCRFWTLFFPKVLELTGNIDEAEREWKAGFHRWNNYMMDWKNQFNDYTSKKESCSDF
Description for Acetylcholinesterase: Inhibition of bovine erythrocyte AChE by Ellman's method

As for `CN(C)CCC(=O)NN1c2ccccc2Sc2cc(Cl)ccc21`, the IC50 against Cholinesterase is 0.7 µM; against Acetylcholinesterase, above 100 µM. Besides, the Activity entry with SH-SY5Y [1] is reported as “Non-toxic”; in the data set on SH-SY5Y [2], 0%; in the data set with SH-SY5Y [3] it was 8.4%; in the data set with SH-SY5Y [4], 44.4%; in the data set on SH-SY5Y [5], 18.6%; with SH-SY5Y [6], 20.1%. For the same compound, the Activity in the data set with SH-SY5Y [7] is 21.4%; with SH-SY5Y [8], 18.9%; with SH-SY5Y [9] it was 52.9%; in the data set with SH-SY5Y [10] it was 6.5%. Moreover, the Papp in data set [11] came out at 8.8 ×10⁻⁶ cm/s.
Consider `CN1CCN(CC(=O)NN2c3ccccc3Sc3cc(Cl)ccc32)CC1`, for which the figures for the IC50 at Cholinesterase and against Acetylcholinesterase were 0.5 µM and above 100 µM, respectively. Also, the Activity result in the data set on SH-SY5Y [1] is recorded as “Non-toxic”; in the data set on SH-SY5Y [2] it was 12.5%; in the data set with SH-SY5Y [3], 17.1%; in the data set with SH-SY5Y [4] it was 37.9%; with SH-SY5Y [5] it was 18.4%; in the data set with SH-SY5Y [6], 18.8%.
Regarding `CC(=O)NN1c2ccccc2Sc2ccc(Cl)cc21`, the IC50 on Cholinesterase and on Acetylcholinesterase was above 100 µM in each case. Further, the Activity entry in the data set with SH-SY5Y [1] is listed as “Non-toxic”; with SH-SY5Y [2] it was 0%; in the data set on SH-SY5Y [3], 0%; with SH-SY5Y [4], 0%; with SH-SY5Y [5], 0%; in the data set on SH-SY5Y [6] it was 0%.
As for `NN1c2ccccc2Sc2ccccc21`, the IC50 on Cholinesterase and against Acetylcholinesterase was above 100 µM throughout. Moreover, the Activity result in the data set with SH-SY5Y [1] is listed as “Non-toxic”; with SH-SY5Y [2], 0%; in the data set with SH-SY5Y [3], 6.7%; in the data set on SH-SY5Y [4], 0%; with SH-SY5Y [5], 0%; in the data set on SH-SY5Y [6], 0%.
For `CC(=O)n1c2ccccc2sc2cccc(Cl)c2n1C(C)=O`, the IC50 against Cholinesterase and against Acetylcholinesterase was above 100 µM throughout. For the same compound, the Activity result in the data set with SH-SY5Y [1] is “Non-toxic”; with SH-SY5Y [2] it was 0%; with SH-SY5Y [3] it was 6.4%; with SH-SY5Y [4] it was 11.4%; with SH-SY5Y [5], 13.2%; in the data set on SH-SY5Y [6] it was 41%. Moreover, the Activity was determined as 48.5% with SH-SY5Y [7], 43.4% with SH-SY5Y [8], 38.9% in the data set with SH-SY5Y [9] and 0% in the data set on SH-SY5Y [12]. Moreover, the Papp in data set [11] was found to be 7.7 ×10⁻⁶ cm/s.
`CN1CCN(NCCN2c3ccccc3Sc3ccccc32)CC1.Cl.Cl`: the IC50 at Cholinesterase is 50 µM; against Acetylcholinesterase, above 100 µM. Moreover, the Activity entry is given as “Non-toxic” in the data set on SH-SY5Y [1]; 14.1% in the data set on SH-SY5Y [2]; 8.3% in the data set with SH-SY5Y [3]; 22.1% in the data set with SH-SY5Y [4]; 36.9% in the data set on SH-SY5Y [5]; 42.1% in the data set on SH-SY5Y [6]. Also, the Activity in the data set on SH-SY5Y [7] was determined as 19.4%; in the data set on SH-SY5Y [8], 22.5%; in the data set with SH-SY5Y [9], 22.6%; with SH-SY5Y [12] it was 16.4%. Besides, the Papp in [11] came to 9.1 ×10⁻⁶ cm/s.
`Cc1c(C)c2c(c(C)c1O)CCC(C)(C(=O)O)O2` (configuration not stated) [TROLOX]: the Activity in the data set with SH-SY5Y [2] came to 0%; with SH-SY5Y [3] it was 0%; in the data set with SH-SY5Y [4] it was 57.7%; in the data set on SH-SY5Y [5] it was 55.7%; with SH-SY5Y [6] it was 64.2%; in the data set on SH-SY5Y [7], 52.9%. Also, the Activity with SH-SY5Y [8] came out at 43.2%; with SH-SY5Y [9], 39.3%; with SH-SY5Y [12], 60.3%.

As a reminder, the IC50 is the concentration that gives 50% inhibition. High values mean lower potency, low ones higher potency.
